According to US20140011799A1 (Bristol-Myers Squibb Company, priority 2012, published 2014):

Molecular target: T1, Endothelial lipase (EL) (Homo sapiens, UniProt Q9Y5X9)
T1 construct: HT-1080 cells that were transformed using RAGE technology (Athersys) to overexpress endogenous EL; endogenous in cells; conditioned medium used
T1 sequence (Q9Y5X9 21-500): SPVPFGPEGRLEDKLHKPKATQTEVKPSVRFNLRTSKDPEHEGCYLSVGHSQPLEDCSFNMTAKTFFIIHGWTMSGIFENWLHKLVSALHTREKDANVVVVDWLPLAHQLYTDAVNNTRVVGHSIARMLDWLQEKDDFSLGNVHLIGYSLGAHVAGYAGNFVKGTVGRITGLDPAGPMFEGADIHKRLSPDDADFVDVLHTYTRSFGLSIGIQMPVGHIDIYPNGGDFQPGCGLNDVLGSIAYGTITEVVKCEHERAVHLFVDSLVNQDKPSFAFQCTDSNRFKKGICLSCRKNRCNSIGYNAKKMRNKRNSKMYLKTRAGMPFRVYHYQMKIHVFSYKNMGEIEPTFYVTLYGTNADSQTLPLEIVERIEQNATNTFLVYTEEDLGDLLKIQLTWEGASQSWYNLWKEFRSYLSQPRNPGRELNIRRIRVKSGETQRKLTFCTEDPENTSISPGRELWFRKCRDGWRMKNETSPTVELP
Assay: Endothelial lipase (EL) enzymatic assay, fluorescent substrate A10070 in DMPG vesicles
Assay type: biochemical
Conditions: EL from conditioned media of HT-1080 cells; compound preincubated 30 min at 37° C; read-out: EL IC50
Method: Endothelial lipase (EL) and hepatic lipase (HL) activities were measured using a fluorescent substrate, A10070, (Invitrogen, CA) doped into an artificial vesicle containing DMPG (Avanti Polar Lipids) as the excipient. Vesicles were prepared by combining 571 μL of 29 mM DMPG in a 1:1 mixture of MeOH and CHCl3 with 2000 μL of 1 mM A10070 in a 1:1 mixture of MeOH and CHCl3. The mixture was dried under nitrogen in multiple vials then resuspended in 20 mL total volume of 50 mM HEPES pH 8.0 buffer containing 50 mM NaCl and 0.2 mM EDTA. The sample was allowed to sit at room temperature for 15 min and then was sonicated 3×4 mins on ice with a Branson Sonicator using duty cycle 1. This preparation provides vesicles with a mole fraction of 0.11 for the FRET substrate.
The enzymatic assay was measured using 384-well white Optiplates. Each well contained 20 μL of assay buffer (50 mM HEPES pH 8.0, 50 mM NaCl and 1 mM CaCl2) and 0.25 μL of a DMSO solution containing a compound of interest. EL or HL (10 μL) was added and allowed to incubate with the compound for 30 min at 37° C. The source of EL was conditioned media obtained from HT-1080 cells that were transformed using RAGE technology (Athersys) to overexpress endogenous EL, and HL was partially purified from conditioned media obtained from COS cells overexpressing HL. The reaction was started by the addition of 10 μL of a 1:10 dilution of vesicles. The final total reaction volume was […]. The reaction rates were measured on a Gemini plate reader with an excitation wavelength of 490 nm and an emission wavelength of 530 nm. Readings were taken over a period of 60 minutes, and the slope between 300 and 900 secs of the readout was used to calculate the rate of the reaction.

Compound | IC50
CC1(Cc2nnc(C(c3nc4ccc(-c5ccc(F)nc5)cc4s3)S(=O)(=O)Cc3ccccc3)o2)SC(=O)NC1=O (single isomer, unassigned; isomer a) [Example 1, 5-((5-((Benzylsulfonyl)(6-(6-fluoropyridin-3-yl)benzo[d]thiazol-2-yl)methyl)-1,3,4-oxadiazol-2-yl)methyl)-5-methylthiazolidine-2,4-dione (Isomer A)] | < 10 nM
CC1(Cc2nnc(C(c3nc4ccc(-c5ccc(F)nc5)cc4s3)S(=O)(=O)Cc3ccccc3)o2)NC(=O)NC1=O (single isomer, unassigned; isomer a) [Example 6, 5-((5-((benzylsulfonyl)(6-(6-fluoropyridin-3-yl)benzo[d]thiazol-2-yl)methyl)-1,3,4-oxadiazol-2-yl)methyl)-5-methylimidazolidine-2,4-dione (Isomer A)] | 11 nM
CC1(Cc2nnc(C(c3nc4ccc(-c5ccnc(F)c5)cc4s3)S(=O)(=O)Cc3ccccc3)o2)NC(=O)NC1=O (single isomer, unassigned; isomer a) [Example 9, 5-((5-((benzylsulfonyl)(6-(2-fluoropyridin-4-yl)benzo[d]thiazol-2-yl)methyl)-1,3,4-oxadiazol-2-yl)methyl)-5-methylimidazolidine-2,4-dione (Isomer A)] | 122 nM
CC1(Cc2nnc(C(c3nc4ccc(-c5ccnc(F)c5)cc4s3)S(C)(=O)=O)o2)NC(=O)NC1=O (single isomer, unassigned; isomer a) [Example 13, 5-((5-((6-(2-fluoropyridin-4-yl)benzo[d]thiazol-2-yl)(methylsulfonyl)methyl)-1,3,4-oxadiazol-2-yl)methyl)-5-methylimidazolidine-2,4-dione (Isomer A)] | < 10 nM
CC1(Cc2nnc(C(c3nc4ccc(-c5ccc(C(=O)N6CCOCC6)cc5)cc4s3)S(C)(=O)=O)o2)NC(=O)NC1=O (single isomer, unassigned; isomer a) [Example 14, 5-methyl-5-((5-((methylsulfonyl)(6-(4-(morpholine-4-carbonyl)phenyl)benzo[d]thiazol-2-yl)methyl)-1,3,4-oxadiazol-2-yl)methyl)imidazolidine-2,4-dione (Isomer A)] | 12 nM
CC1(Cc2nnc(C(c3nc4ccc(-c5ccc(F)nc5)cc4s3)S(C)(=O)=O)o2)SC(=O)NC1=O (single isomer, unassigned; isomer a) [Example 17, 5-((5-((6-(6-fluoropyridin-3-yl)benzo[d]thiazol-2-yl)(methylsulfonyl)methyl)-1,3,4-oxadiazol-2-yl)methyl)-5-methylthiazolidine-2,4-dione (Isomer A)] | < 10 nM
CC1(Cc2nnc(C(c3nc4ccc(-c5ccc(F)nc5)cc4s3)S(=O)(=O)Cc3ccccc3)o2)SC(=O)NC1=O (single isomer, unassigned; isomer b) [Example 4, 5-((5-((benzylsulfonyl)(6-(6-fluoropyridin-3-yl)benzo[d]thiazol-2-yl)methyl)-1,3,4-oxadiazol-2-yl)methyl)-5-methylthiazolidine-2,4-dione (Isomer B)] | < 10 nM
CC1(Cc2nnc(C(c3nc4ccc(-c5ccc(F)nc5)cc4s3)S(=O)(=O)Cc3ccccc3)o2)NC(=O)NC1=O (single isomer, unassigned; isomer b) [Example 7, 5-((5-((benzylsulfonyl)(6-(6-fluoropyridin-3-yl)benzo[d]thiazol-2-yl)methyl)-1,3,4-oxadiazol-2-yl)methyl)-5-methylimidazolidine-2,4-dione (Isomer B)] | 188 nM
CC1(Cc2nnc(C(c3nc4ccc(-c5ccnc(F)c5)cc4s3)S(=O)(=O)Cc3ccccc3)o2)NC(=O)NC1=O (single isomer, unassigned; isomer b) [Example 10, 5-((5-((benzylsulfonyl)(6-(2-fluoropyridin-4-yl)benzo[d]thiazol-2-yl)methyl)-1,3,4-oxadiazol-2-yl)methyl)-5-methylimidazolidine-2,4-dione (Isomer B)] | 19 nM
CC1(Cc2nnc(C(c3nc4ccc(-c5ccnc(F)c5)cc4s3)S(C)(=O)=O)o2)NC(=O)NC1=O (single isomer, unassigned; isomer b) [Example 12, 5-((5-((6-(2-fluoropyridin-4-yl)benzo[d]thiazol-2-yl)(methylsulfonyl)methyl)-1,3,4-oxadiazol-2-yl)methyl)-5-methylimidazolidine-2,4-dione (Isomer B)] | 54 nM
CC1(Cc2nnc(C(c3nc4ccc(-c5ccc(C(=O)N6CCOCC6)cc5)cc4s3)S(C)(=O)=O)o2)NC(=O)NC1=O (single isomer, unassigned; isomer b) [Example 15, 5-methyl-5-((5-((methylsulfonyl)(6-(4-(morpholine-4-carbonyl)phenyl)benzo[d]thiazol-2-yl)methyl)-1,3,4-oxadiazol-2-yl)methyl)imidazolidine-2,4-dione (Isomer B)] | 65 nM

Further lines, results first:

IC50 | Compound
3750 nM | CC(c1nnc(CNS(N)(=O)=O)o1)(c1nc2ccc(-c3ccccc3)cc2s1)S(C)(=O)=O (single isomer, unassigned) [Reference 1, Isomer A, N-((5-(1-(Methylsulfonyl)-1-(6-phenyl-1,3-benzothiazol-2-yl)ethyl)-1,3,4-oxadiazol-2-yl)methyl)sulfamide, reference compound]
5200 nM | CC(c1nnc(CNS(N)(=O)=O)o1)(c1nc2ccc(-c3ccccc3)cc2s1)S(C)(=O)=O (single isomer, unassigned) [Reference 1, Isomer B, N-((5-(1-(Methylsulfonyl)-1-(6-phenyl-1,3-benzothiazol-2-yl)ethyl)-1,3,4-oxadiazol-2-yl)methyl)sulfamide, reference compound]
281 nM | CC1(Cc2nnc(C(c3nc4ccc(-c5ccc(F)nc5)cc4s3)S(C)(=O)=O)o2)NC(=O)NC1=O (single isomer, unassigned; isomer a) [Example 21, 5-((5-((6-(6-fluoropyridin-3-yl)benzo[d]thiazol-2-yl)(methylsulfonyl)methyl)-1,3,4-oxadiazol-2-yl)methyl)-5-methylimidazolidine-2,4-dione (Isomer A)]
< 10 nM | CC1(Cc2nnc(C(c3nc4ccc(-c5ccccc5)cc4s3)S(C)(=O)=O)o2)NC(=O)N(CC(F)(F)F)C1=O (single isomer, unassigned; isomer a) [Example 27, 5-methyl-5-((5-(methylsulfonyl(6-phenylbenzo[d]thiazol-2-yl)methyl)-1,3,4-oxadiazol-2-yl)methyl)-3-(2,2,2-trifluoroethyl)imidazolidine-2,4-dione (Isomer A)]
< 10 nM | CC1(Cc2nnc(C(c3nc4ccc(-c5ccc(F)nc5)cc4s3)S(C)(=O)=O)o2)SC(=O)NC1=O (single isomer, unassigned; isomer b) [Example 18, 5-((5-((6-(6-fluoropyridin-3-yl)benzo[d]thiazol-2-yl)(methylsulfonyl)methyl)-1,3,4-oxadiazol-2-yl)methyl)-5-methylthiazolidine-2,4-dione (Isomer B)]
27 nM | CC1(Cc2nnc(C(c3nc4ccc(-c5ccc(F)nc5)cc4s3)S(C)(=O)=O)o2)NC(=O)NC1=O (single isomer, unassigned; isomer b) [Example 22, 5-((5-((6-(6-fluoropyridin-3-yl)benzo[d]thiazol-2-yl)(methylsulfonyl)methyl)-1,3,4-oxadiazol-2-yl)methyl)-5-methylimidazolidine-2,4-dione (Isomer B)]
